Reference: patent US8680113B2, “BMI-1 protein expression modulators” (PTC Therapeutics, Inc., priority 2008, dated 2014)

What follows are compounds tested on Bmi-1 (assay: Sandwich ELISA Assay (Bmi-1 ELISA in HT-1080 cells)).
Type: cell-based, human
Summary of the method: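 Lysate Bmi-1 was quantified against a recombinant GST-Bmi-1 standard (0-8000 pg/mL) by sandwich ELISA read at OD450 with OD570 reference. The ELISA used mouse monoclonal capture, rabbit anti-Bmi-1, HRP anti-rabbit IgG and TMB. Before lysis, HT-1080 cells seeded at 8000/well were exposed to compounds for 40-48 h at 37°C with 0.5% final DMSO.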

Row | IC50 [µM] | Compound
1 | < 0.5 | Cc1ccc(Nc2nc(-c3c(C)nc4ccc(Cl)cn34)cs2)c(Br)c1 [Cpd 205, N-(2-bromo-4-methylphenyl)-4-(6-chloro-2-methylimidazo[1,2-a]pyridin-3-yl)-1,3-thiazol-2-amine]
2 | < 0.5 | CCN(CC)c1ccc(Nc2nc(-c3c(C)nc4ccc(Cl)cn34)cs2)cc1 [Cpd 206, N′-[4-(6-chloro-2-methylimidazo[1,2-a]pyridin-3-yl)-1,3-thiazol-2-yl]-N,N-diethylbenzene-1,4-diamine]
3 | < 0.5 | COc1ccc(Nc2nc(-c3c(C)nc4ccc(Cl)cn34)cs2)cc1OC [Cpd 207, 4-(6-chloro-2-methylimidazo[1,2-a]pyridin-3-yl)-N-(3,4-dimethoxyphenyl)-1,3-thiazol-2-amine]
4 | < 0.5 | COc1ccc(Nc2nc(-c3c(C)nc4ccc(Cl)cn34)cs2)c(Br)c1 [Cpd 208, N-(2-bromo-4-methoxyphenyl)-4-(6-chloro-2-methylimidazo[1,2-a]pyridin-3-yl)-1,3-thiazol-2-amine]
5 | < 0.5 | Cc1cccc(Nc2nc(-c3c(C)nc4ccc(Cl)cn34)cs2)c1 [Cpd 209, 4-(6-chloro-2-methylimidazo[1,2-a]pyridin-3-yl)-N-(3-methylphenyl)-1,3-thiazol-2-amine]
6 | < 0.5 | Cc1nc2ccc(Cl)cn2c1-c1csc(Nc2cccc(O)c2)n1 [Cpd 210, 3-{[4-(6-chloro-2-methylimidazo[1,2-a]pyridin-3-yl)-1,3-thiazol-2-yl]amino}phenol]
7 | < 0.5 | CC(=O)c1cccc(Nc2nc(-c3c(C)nc4ccc(Cl)cn34)cs2)c1 [Cpd 211, 1-(3-{[4-(6-chloro-2-methylimidazo[1,2-a]pyridin-3-yl)-1,3-thiazol-2-yl]amino}phenyl)ethanone]
8 | < 0.5 | Cc1nc2ccc(Cl)cn2c1-c1csc(Nc2cccc(Br)c2)n1 [Cpd 212, N-(3-bromophenyl)-4-(6-chloro-2-methylimidazo[1,2-a]pyridin-3-yl)-1,3-thiazol-2-amine]
9 | < 0.5 | Cc1nc2ccc(Cl)cn2c1-c1csc(Nc2cccc(Cl)c2)n1 [Cpd 213, 4-(6-chloro-2-methylimidazo[1,2-a]pyridin-3-yl)-N-(3-chlorophenyl)-1,3-thiazol-2-amine]
10 | < 0.5 | Cc1ccc(Nc2nc(-c3c(C)nc4ccc(Cl)cn34)cs2)c(C)c1 [Cpd 214, 4-(6-chloro-2-methylimidazo[1,2-a]pyridin-3-yl)-N-(2,4-dimethylphenyl)-1,3-thiazol-2-amine]
11 | < 0.5 | Cc1nc2ccc(Cl)cn2c1-c1csc(Nc2cccc(F)c2)n1 [Cpd 215, 4-(6-chloro-2-methylimidazo[1,2-a]pyridin-3-yl)-N-(3-fluorophenyl)-1,3-thiazol-2-amine]
12 | < 0.5 | Cc1cc(Br)ccc1Nc1nc(-c2c(C)nc3ccc(Cl)cn23)cs1 [Cpd 216, N-(4-bromo-2-methylphenyl)-4-(6-chloro-2-methylimidazo[1,2-a]pyridin-3-yl)-1,3-thiazol-2-amine]
13 | < 0.5 | COc1cccc(Nc2nc(-c3c(C)nc4ccc(Cl)cn34)cs2)c1 [Cpd 217, 4-(6-chloro-2-methylimidazo[1,2-a]pyridin-3-yl)-N-(3-methoxyphenyl)-1,3-thiazol-2-amine]
14 | < 0.5 | Cc1nc2ccc(Cl)cn2c1-c1csc(Nc2ccc(Cl)cc2Cl)n1 [Cpd 218, 4-(6-chloro-2-methylimidazo[1,2-a]pyridin-3-yl)-N-(2,4-dichlorophenyl)-1,3-thiazol-2-amine]
15 | < 0.5 | Cc1nc2ccc(Cl)cn2c1-c1csc(Nc2ccc3c(c2)OC(C)(C)O3)n1 [Cpd 219, 4-(6-chloro-2-methylimidazo[1,2-a]pyridin-3-yl)-N-(2,2-dimethyl-1,3-benzodioxol-5-yl)-1,3-thiazol-2-amine]
16 | < 0.5 | Cc1nc2c(Br)cccn2c1-c1csc(Nc2ccc(Cl)cc2)n1 [Cpd 230, 4-(8-bromo-2-methylimidazo[1,2-a]pyridin-3-yl)-N-(4-chlorophenyl)-1,3-thiazol-2-amine]

Further lines, the compound ahead of its results:

Row | Compound | IC50 [µM]
17 | Cc1nc2ccccn2c1-c1csc(Nc2ccc(O)c(O)c2)n1 [Cpd 201, 4-{[4-(2-methylimidazo[1,2-a]pyridin-3-yl)-1,3-thiazol-2-yl]amino}benzene-1,2-diol] | < 0.5
18 | COc1ccc(Nc2nc(-c3c(C)nc4ccccn34)cs2)cc1OC [Cpd 202, N-(3,4-dimethoxyphenyl)-4-(2-methylimidazo[1,2-a]pyridin-3-yl)-1,3-thiazol-2-amine] | < 0.5
19 | Cc1nc2ccccn2c1-c1csc(Nc2ccc(F)cc2F)n1 [Cpd 203, N-(2,4-difluorophenyl)-4-(2-methylimidazo[1,2-a]pyridin-3-yl)-1,3-thiazol-2-amine] | < 0.5
20 | CCOc1ccc(Nc2nc(-c3c(C)nc4ccccn34)cs2)cc1 [Cpd 204, N-(4-ethoxyphenyl)-4-(2-methylimidazo[1,2-a]pyridin-3-yl)-1,3-thiazol-2-amine] | < 0.5
21 | Cc1nc2c(Cl)cc(Cl)cn2c1-c1csc(Nc2ccc3c(c2)OCO3)n1 [Cpd 220, N-(1,3-benzodioxol-5-yl)-4-(6,8-dichloro-2-methylimidazo[1,2-a]pyridin-3-yl)-1,3-thiazol-2-amine] | < 0.5
22 | Cc1nc2c(C)cccn2c1-c1csc(Nc2ccc(N(C)C)cc2)n1 [Cpd 221, N′-[4-(2,8-dimethylimidazo[1,2-a]pyridin-3-yl)-1,3-thiazol-2-yl]-N,N-dimethylbenzene-1,4-diamine] | < 0.5
23 | COc1ccc(Nc2nc(-c3c(C)nc4c(C)cccn34)cs2)cc1 [Cpd 222, 4-(2,8-dimethylimidazo[1,2-a]pyridin-3-yl)-N-(4-methoxyphenyl)-1,3-thiazol-2-amine] | < 0.5
24 | Cc1ccc(Nc2nc(-c3c(C)nc4c(C)cccn34)cs2)cc1 [Cpd 223, 4-(2,8-dimethylimidazo[1,2-a]pyridin-3-yl)-N-(4-methylphenyl)-1,3-thiazol-2-amine] | < 0.5
25 | Cc1nc2c(C)cccn2c1-c1csc(Nc2ccc(Cl)cc2)n1 [Cpd 224, N-(4-chlorophenyl)-4-(2,8-dimethylimidazo[1,2-a]pyridin-3-yl)-1,3-thiazol-2-amine] | < 0.5
26 | COc1cccc(Nc2nc(-c3c(C)nc4c(C)cccn34)cs2)c1 [Cpd 225, 4-(2,8-dimethylimidazo[1,2-a]pyridin-3-yl)-N-(3-methoxyphenyl)-1,3-thiazol-2-amine] | < 0.5
27 | Cc1nc2c(C)cccn2c1-c1csc(Nc2ccc3c(c2)OCO3)n1 [Cpd 226, N-(1,3-benzodioxol-5-yl)-4-(2,8-dimethylimidazo[1,2-a]pyridin-3-yl)-1,3-thiazol-2-amine] | < 0.5
28 | Cc1nc2c(Br)cccn2c1-c1csc(Nc2ccc(N(C)C)cc2)n1 [Cpd 227, N′-[4-(8-bromo-2-methylimidazo[1,2-a]pyridin-3-yl)-1,3-thiazol-2-yl]-N,N-dimethylbenzene-1,4-diamine] | < 0.5
29 | COc1ccc(Nc2nc(-c3c(C)nc4c(Br)cccn34)cs2)cc1 [Cpd 228, 4-(8-bromo-2-methylimidazo[1,2-a]pyridin-3-yl)-N-(4-methoxyphenyl)-1,3-thiazol-2-amine] | < 0.5
30 | Cc1ccc(Nc2nc(-c3c(C)nc4c(Br)cccn34)cs2)cc1 [Cpd 229, 4-(8-bromo-2-methylimidazo[1,2-a]pyridin-3-yl)-N-(4-methylphenyl)-1,3-thiazol-2-amine] | < 0.5
31 | Cc1nc2c(Br)cccn2c1-c1csc(Nc2ccccc2)n1 [Cpd 231, 4-(8-bromo-2-methylimidazo[1,2-a]pyridin-3-yl)-N-phenyl-1,3-thiazol-2-amine] | < 0.5
